Where two headings read alike, the source gives them in different places.

Data on seven compounds can be found in patent US20130324522A1, “INSECT ODORANT RECEPTOR ANTAGONISTS” (THE ROCKEFELLER UNIVERSITY, priority 2010, published 2013).

Common to all, as to assay type: cell-based
Test [1] has as its target OR8/OR7 (Anopheles gambiae, UniProt Q7PUT5+Q7QCC7). Description: Ca2+-imaging of stable HEK293T cell line OR8/OR7. As to conditions: for inhibition at 4 µM: HEK-293T, compound applied at 4 μM, read-out: Percent Inhibition OR8 OR7. An outline of the steps:
(§1)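 Stable HEK293T lines co-expressing the Anopheles ligand-specific OR with co-receptor OR7 (or mouse TRPM8 alone) were seeded on poly-D-lysine at 10,000 cells/well and cultured 2 days. Cells were loaded with Ca-4 dye for 1.5 hr at room temperature, then odorant/compound solutions in HBSS were added on an FDSS6000 reader.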

Test [2] concerns the target T1, Or47a/Or83b (Drosophila melanogaster, UniProt P81921+Q9VNB5).
T1 construct: Full-length cDNAs for mosquito (Anopheles gambiae) odorant receptor (OR1, OR2, OR7, OR8, OR28), and fly (Drosophila melanogaster) odorant receptor (Or47a, Or83b); expressed in transfected cells
T1 sequence (P81921 1-385): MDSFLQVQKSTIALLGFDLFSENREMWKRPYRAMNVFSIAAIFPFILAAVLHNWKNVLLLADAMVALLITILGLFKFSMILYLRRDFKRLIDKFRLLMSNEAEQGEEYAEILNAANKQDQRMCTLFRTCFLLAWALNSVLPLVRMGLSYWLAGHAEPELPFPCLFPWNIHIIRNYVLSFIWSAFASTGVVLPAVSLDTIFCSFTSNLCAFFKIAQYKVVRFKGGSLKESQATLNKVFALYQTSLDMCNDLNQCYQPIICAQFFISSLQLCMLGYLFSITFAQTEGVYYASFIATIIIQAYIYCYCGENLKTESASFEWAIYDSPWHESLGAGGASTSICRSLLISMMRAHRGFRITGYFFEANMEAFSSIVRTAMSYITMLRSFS
T1 sequence (Q9VNB5 1-486): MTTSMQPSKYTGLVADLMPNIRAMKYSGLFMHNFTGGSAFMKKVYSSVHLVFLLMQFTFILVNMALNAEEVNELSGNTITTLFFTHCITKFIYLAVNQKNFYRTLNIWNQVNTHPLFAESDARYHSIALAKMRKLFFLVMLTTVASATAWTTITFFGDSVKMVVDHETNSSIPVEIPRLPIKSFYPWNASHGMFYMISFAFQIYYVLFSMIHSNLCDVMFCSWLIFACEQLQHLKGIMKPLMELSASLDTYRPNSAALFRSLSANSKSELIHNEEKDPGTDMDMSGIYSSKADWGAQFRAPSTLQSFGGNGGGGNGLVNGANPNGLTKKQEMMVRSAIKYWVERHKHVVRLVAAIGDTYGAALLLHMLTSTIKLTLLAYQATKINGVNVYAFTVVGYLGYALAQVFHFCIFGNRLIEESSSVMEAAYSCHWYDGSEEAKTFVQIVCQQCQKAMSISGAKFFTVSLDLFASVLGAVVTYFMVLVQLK
Put plainly: Ca2+-imaging of stable Flip-In T-Rex cell line Or47a/Or83b. The conditions noted are these: for inhibition at 4 µM: compound applied at 4 μM, read-out: Percent Inhibition OR47a OR83b. In short, it runs like this: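 Calcium responses were read on an FDSS6000 (485 nm excitation, 525 nm emission) after Ca-4 loading for 1.5 h at room temperature. Cells were tetracycline-induced Flp-In T-REx lines stably carrying fly Or47a/Or83b or mouse 5HT3, plated 2 days ahead; compounds were co-delivered in HBSS odorant solution.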

For test [3], the target named is T2, TRP channel (TRPM8) (Mus musculus, UniProt Q8R4D5).
T2 construct: Full-length cDNAs for mosquito (Anopheles gambiae) odorant receptor (OR1, OR2, OR7, OR8, OR28), and fly (Drosophila melanogaster) odorant receptor (Or47a, Or83b), mouse TRP channel (TRPM8); expressed in transfected cells
T2 sequence (Q8R4D5 whole entry): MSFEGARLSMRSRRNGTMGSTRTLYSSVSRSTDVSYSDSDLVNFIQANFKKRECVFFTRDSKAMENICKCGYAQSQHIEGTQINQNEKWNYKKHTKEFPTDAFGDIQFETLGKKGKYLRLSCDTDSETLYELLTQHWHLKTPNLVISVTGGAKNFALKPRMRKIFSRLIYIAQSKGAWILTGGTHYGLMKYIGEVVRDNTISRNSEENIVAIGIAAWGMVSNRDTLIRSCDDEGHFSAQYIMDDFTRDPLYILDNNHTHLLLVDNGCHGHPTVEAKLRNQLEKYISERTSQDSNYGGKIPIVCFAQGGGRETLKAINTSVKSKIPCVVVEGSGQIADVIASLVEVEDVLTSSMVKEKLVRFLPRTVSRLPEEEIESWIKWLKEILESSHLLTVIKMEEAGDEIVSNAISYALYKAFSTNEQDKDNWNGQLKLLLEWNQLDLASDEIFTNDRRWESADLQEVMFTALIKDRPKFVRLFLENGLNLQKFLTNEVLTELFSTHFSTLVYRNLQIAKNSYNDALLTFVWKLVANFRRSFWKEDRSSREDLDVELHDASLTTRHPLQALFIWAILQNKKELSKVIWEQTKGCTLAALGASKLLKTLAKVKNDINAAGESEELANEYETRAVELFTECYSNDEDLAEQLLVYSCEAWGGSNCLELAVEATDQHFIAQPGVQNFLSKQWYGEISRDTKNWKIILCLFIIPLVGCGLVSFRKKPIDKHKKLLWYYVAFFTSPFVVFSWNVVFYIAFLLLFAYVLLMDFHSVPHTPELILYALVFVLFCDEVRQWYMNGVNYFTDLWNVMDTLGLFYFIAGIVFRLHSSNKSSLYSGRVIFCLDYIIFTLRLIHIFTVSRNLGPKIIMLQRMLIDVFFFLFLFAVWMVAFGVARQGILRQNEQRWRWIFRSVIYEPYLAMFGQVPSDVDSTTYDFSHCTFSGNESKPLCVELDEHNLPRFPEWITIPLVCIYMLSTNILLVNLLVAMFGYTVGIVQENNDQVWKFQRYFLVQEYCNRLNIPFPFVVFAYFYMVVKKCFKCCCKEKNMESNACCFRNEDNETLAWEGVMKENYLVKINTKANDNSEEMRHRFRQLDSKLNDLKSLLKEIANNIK
Description: Ca2+-imaging of stable HEK293T cell line TRPM8. As to conditions: for inhibition at 4 µM: HEK-293T, compound applied at 4 μM, read-out: Percent Inhibition TRPM8. An outline of the steps: as §1

Test [4] addresses OR28/OR7 (Anopheles gambiae, UniProt A0A1S4GFY3+Q7QCC7). Description: Ca2+-imaging of stable HEK293T cell line OR28/OR7. As to conditions: for inhibition at 4 µM: HEK-293T, compound applied at 4 μM, read-out: Percent Inhibition OR28 OR7. In short, it runs like this: as §1

Chain of OR8/OR7 (Q7QCC7 whole entry): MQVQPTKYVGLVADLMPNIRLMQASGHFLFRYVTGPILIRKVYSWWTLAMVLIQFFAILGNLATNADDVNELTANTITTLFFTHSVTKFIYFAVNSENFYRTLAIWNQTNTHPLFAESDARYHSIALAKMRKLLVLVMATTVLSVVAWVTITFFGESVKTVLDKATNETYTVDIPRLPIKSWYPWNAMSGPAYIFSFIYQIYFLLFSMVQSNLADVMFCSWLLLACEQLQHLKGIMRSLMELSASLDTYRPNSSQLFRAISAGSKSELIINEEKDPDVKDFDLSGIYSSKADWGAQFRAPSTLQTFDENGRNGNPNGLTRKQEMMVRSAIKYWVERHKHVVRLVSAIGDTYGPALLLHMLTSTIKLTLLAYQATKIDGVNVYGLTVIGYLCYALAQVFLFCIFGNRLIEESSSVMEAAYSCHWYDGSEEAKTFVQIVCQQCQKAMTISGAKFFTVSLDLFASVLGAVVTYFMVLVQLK
Chain of OR8/OR7 (Q7PUT5 entry or part of it): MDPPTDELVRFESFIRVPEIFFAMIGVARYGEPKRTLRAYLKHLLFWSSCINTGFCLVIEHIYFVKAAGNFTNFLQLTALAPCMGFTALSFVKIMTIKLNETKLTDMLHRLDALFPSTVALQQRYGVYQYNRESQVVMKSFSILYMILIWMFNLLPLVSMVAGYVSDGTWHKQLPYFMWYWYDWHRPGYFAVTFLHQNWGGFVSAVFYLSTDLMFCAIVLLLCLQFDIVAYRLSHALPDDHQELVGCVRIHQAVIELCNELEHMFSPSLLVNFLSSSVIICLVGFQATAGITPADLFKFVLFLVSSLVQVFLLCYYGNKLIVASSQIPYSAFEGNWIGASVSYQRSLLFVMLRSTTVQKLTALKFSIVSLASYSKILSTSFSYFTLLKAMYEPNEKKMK
Chain of OR28/OR7 (A0A1S4GFY3 entry or part of it): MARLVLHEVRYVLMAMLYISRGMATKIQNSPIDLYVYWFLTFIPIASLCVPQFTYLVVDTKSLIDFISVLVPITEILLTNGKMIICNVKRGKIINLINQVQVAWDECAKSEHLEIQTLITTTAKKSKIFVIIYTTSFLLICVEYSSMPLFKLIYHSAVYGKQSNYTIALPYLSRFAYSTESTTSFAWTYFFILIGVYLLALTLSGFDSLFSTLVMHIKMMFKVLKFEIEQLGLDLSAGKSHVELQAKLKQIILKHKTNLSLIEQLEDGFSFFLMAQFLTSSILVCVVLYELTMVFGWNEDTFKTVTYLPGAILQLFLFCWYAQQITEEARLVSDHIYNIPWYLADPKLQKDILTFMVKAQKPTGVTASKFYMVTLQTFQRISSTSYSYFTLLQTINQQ
Chain of OR28/OR7 (Q7QCC7 whole entry): as the sequence (Q7QCC7 whole entry) above

On to `C=CCN(Cc1nccn1Cc1ccccc1C)C(=O)CC(C)C` [RU-0058298], for which the inhibition at 4 µM in test [1] was < 25%; in test [2], 51 to 74%; in test [3] it was 26 to 50%; in test [4], > 75%. Moreover, the IC50 in test [2] (Table B, read-out: IC50 OR47a) was > 1000 nM; in test [4] (Table B, read-out: IC50 OR28) it was < 100 nM.

Turning to `c1ccc(CNc2nc(NCc3ccco3)nc(N3CCOCC3)n2)cc1` [RU-0020050], the inhibition at 4 µM in test [1] was > 75%; in test [2] it was 51 to 74%; in test [3], 26 to 50%; in test [4] it was > 75%. In addition, the IC50 was > 1000 nM in test [1] (Table B, read-out: IC50 OR8); < 100 nM in test [2] (Table B, read-out: IC50 OR47a); 100 to 1000 nM in test [4] (Table B, read-out: IC50 OR28).

Take `CCN(CC)c1onc(-c2ccccc2)c1CN(CC1CCCO1)C(=O)c1ccc2c(c1)OCO2` (centres unmarked) [RU-0036875]: the inhibition at 4 µM in test [1] was 51 to 74%; in test [2] it was 51 to 74%; in test [3] it was < 25%; in test [4], > 75%. Besides, the IC50 in test [1] (Table B, read-out: IC50 OR8) is > 1000 nM; in test [2] (Table B, read-out: IC50 OR47a), > 1000 nM; in test [4] (Table B, read-out: IC50 OR28), < 100 nM.

Consider `Cc1cccc(Cn2ccnc2CN(C(=O)c2ccccc2F)C2CCCCC2)c1` [RU-0047851], for which the inhibition at 4 µM in test [1] was < 25%; in test [2], 26 to 50%; in test [3], < 25%; in test [4] it was 26 to 50%. Further, the IC50 in test [4] (Table B, read-out: IC50 OR28) was < 100 nM.

In the case of `CCN(CC)c1onc(-c2ccccc2)c1CN(CC1CCCO1)C(=O)c1ccco1` (centres unmarked) [RU-0036855], the inhibition at 4 µM in test [1] was 26 to 50%; in test [2], 26 to 50%; in test [3], 26 to 50%; in test [4], > 75%. For the same compound, the IC50 in test [4] (Table B, read-out: IC50 OR28) was < 100 nM.

On to `CC(C)Nc1nc(Cl)nc(NCc2ccccc2)n1` [RU-T9], for which the IC50 in test [1] was > 220000 nM; in test [2], > 20000 nM; in test [3] it was > 20000 nM; in test [4], > 50000 nM.

On to `CCNc1nc(NC(C)C)nc(SC)n1` [RU-T3], for which the IC50 in test [1] was 2000 to 20000 nM; in test [2] (ligand pentyl acetate 30 μM, read-out: IC50 OR47a OR83b), 2000 to 20000 nM; in test [3] (ligand menthol 300 μM, read-out: IC50 TRPM8), > 20000 nM; in test [4], 2000 to 20000 nM.

A word on the inhibition: it is the relative decrease from the control value, in per cent. For orientation: IC50 means the concentration that inhibits the measured activity by half.
